# Laboratory results: patent publication US20040186022A1, “Enhanced herbicides” (priority 1999, published 2004)
# Legend:
# [1] = Measurement of pH values for test desiccants (Example 56); assay type: physicochemical
# [2] = tested on: 60 G/a: redroot pigweed, foxtail and velvetleaf; spray to drip: foxtail, dry beans and pigweed; assay: Herbicidal activity: caprylic acid and succinic acid +/- ammonium sulfate; assay type: in vivo
# Text: (§1) The herbicides were applied in the “spray to drip” amount or at a calibrated 20-60 gallons/acre. “Spray to drip” is an uncalibrated application of fluid to foliage, where sufficient spray volume is used to sufficiently saturate the foliage surface until excess fluid begins to drip from the foliage.
# Turf = assay: Synergistic relationships between succinic acid and caprylic acid (or sodium salicylate), testing turf; assay type: in vivo; details: 2 days after a single foliar application, 5 equals profound desiccation
# Text: as §1
# [3] = tested on: navy dry beans (navy Vista); assay: Synergistic interactions of succinic acid and di-ammonium succinate with herbicidal compounds, navy dry beans; assay type: in vivo, dry bean (navy); details: for Injury rating, average per plot: scale 1-5
# Text: as §1
# [4] = tested on: black beans (dry bean variety T39); assay: Synergistic interactions of succinic acid and di-ammonium succinate with other herbicidal compounds, dry beans (black); assay type: in vivo; details: for Injury rating, average per plot: scale 1-5
# Text: as §1
# [5] = tested on: 40 G/a: crab grass, pigweed, chick weed and foxtail; 60 G/a: pigweed, Kentucky bluegrass, foxtail, crab grass and barnyard grass; spray to drip: Kentucky …; assay: Herbicidal activities: synergy between succinic acid and pelargonic acid; assay type: in vivo
# Text: as §1
# plants [6] = assay: Synergistic relationship between succinic acid and caprylic/capric acids C/C, herbicidal activity; assay type: in vivo
# Text: as §1
# [7] = tested on: 60 G/a: lambsquarter, pigweed and velvetleaf; spray to drip: lambsquarter and foxtail; assay: Herbicidal activity of caproic acid with succinic acid and sodium salicylate; assay type: in vivo
# Text: as §1
# [8] = tested on: 40 G/a: crab grass, chickweed and common lambsquarter; 60 G/a: redtop, pigweed, foxtail; spray to drip: barnyard grass, foxtail, sudan grass and nutsedge; assay: Herbicidal combinations of caprylic/capric (c/c) or pelargonic acid with equimolar succinic acid and ammonium succinate, on weed varieties; assay type: in vivo
# [9] = tested on: chickweed, redtop, velvetleaf, crabgrass and green foxtail; assay: Enhancement of herbicidal activity of caprylic/capric acids (c/c) using selected compounds at equimolar amounts; assay type: in vivo
# Text: as §1
# soybeans = assay: Synergistic relationships: succinic acid + caprylic acid, succinic acid + sodium salicylate, testing soybeans; assay type: in vivo; details: 3 days after a single foliar application, soybean Stine 2250
# Text: as §1
# [10] = tested on: Kentucky bluegrass, velvetleaf, foxtail, tomato, potato and snapbeans
# Text: as §1
# plants [11] = assay: Herbicidal enhancement of pelargonic by succinic acid and diammonium succinate; assay type: in vivo
# Text: as §1
# [12] = 40 G/a, 60 G/a and spray to drip
# [13] = rating 1 to 5, 5 = complete desiccation of all plants
smiles,measurement,setting,value
O=C([O-])c1ccccc1O.[Na+] [Sodium Salicylate (0.5%)],pH Value,[1],4.48
"CCCCCCCC(=O)O [4% caprylic acid, caprylic acid]","Total Injury ratings, combined, for two separate evaluations, Total Rating",[2]; 60 G/a plus spray to drip,116.8
same,"Total Injury ratings, combined, for two separate evaluations, 60 G/a","[2]; 60 G/a, 7 pots/treatment, rating 1-5 per pot, 1% Emsorb 6900",60.7
same,Average rating/pot,[2]; scale 1-5,4.49
same,"Total Injury ratings, combined, for two separate evaluations, Spray to drip","[2]; spray to drip, 6 pots/treatment",56.1
O=C(O)CCC(=O)O [Succinic Acid (0.5)],Overall Effect,Turf,0
"O=C(O)CCC(=O)O [0.5% succinic acid, succinic acid]","Injury rating, average per plot","[3]; Day 1, one application at 40 G/acre, treatments 1-4, 9-11 in Emsorb 6900/mineral oil/Hasten, 5-8, 12-14 in 0.3% Sylgard 309",0
same,"Injury rating, average per plot",[3]; Day 2,0
same,"Injury rating, average per plot",[3]; Day 3,0
same,"Injury rating, average per plot",[3]; Day 4,0
same,"% desiccation (Day 12), foliage","[3]; Day 12, foliage",0%
same,"% desiccation (Day 12), pods","[3]; Day 12, pods",0%
same,"% desiccation (Day 12), vines","[3]; Day 12, vines",0%
same,"Injury rating, average per plot",[3]; Day 12,0
same,"Injury rating, average per plot","[4]; Day 2, one application at 40 G/acre, treatments 1-4, 9-11 in Emsorb 6900/mineral oil/Hasten, 5-8, 12-14 in 0.3% Sylgard 309",0
same,"% desiccation (Day 12), foliage","[4]; Day 12, foliage",0%
same,"% desiccation (Day 12), pods","[4]; Day 12, pods",0%
same,"% desiccation (Day 12), vines","[4]; Day 12, vines",0%
same,"Injury rating, average per plot",[4]; Day 12,0
same,"Total injury ratings, Total",[5]; [12],0
same,"Total injury ratings, 40 G/a","[5]; 40 G/a, 9 pots/treatment, rating 1-5 per pot, 1.125% Emsorb 6900",0
same,"Total injury ratings, 60 G/a","[5]; 60 G/a, 10 pots/treatment",0
same,"Total injury ratings, Spray to drip","[5]; spray to drip, 7 pots/treatment",0
same,"Injury ratings, Total",plants [6]; 40 G/a + 60 G/a,0
same,"Injury ratings based on 2 independent evaluations, 40 G/a","plants [6]; 40 G/acre: Canadian thistle, velvet leaf, Johnson grass and giant foxtail, each pot rated 1 to 5",0
same,"Injury ratings based on 2 independent evaluations, 60 G/a","plants [6]; 60 G/acre: velvetleaf, Johnson grass and giant foxtail, each pot rated 1 to 5",0
same,Average rating per pot,plants [6]; [13],0
"CCCCCC(=O)O [3% caproic, caproic acid]","Total Injury ratings, Total score",[7]; 60 G/a plus spray to drip,20.9
same,"Total injury ratings, 60 G/a","[7]; 60 G/a, 4 pots/treatment, lambsquarter, pigweed and velvetleaf, rating 1-5 per pot",13.9
same,"Total injury ratings, Spray to drip","[7]; spray to drip, 2 pots/treatment, lambsquarter and foxtail",7
"CCCCCCCCC(=O)O [3% pelargonic acid, pelargonic acid]","Total injury ratings, Total",[8]; [12],185.8
same,"Total injury ratings, 40 G/a","[8]; 40 G/a, 10 pots/treatment, two evaluations, rating 1-5 per pot, 1% Emsorb 6900",87.7
same,"Total injury ratings, 60 G/a","[8]; 60 G/a, 7 pots/treatment, two evaluations",60.8
same,Average rating/pot,[8]; scale 1-5,4.42
same,"Total injury ratings, Spray to drip","[8]; spray to drip, 8 pots/treatment, one evaluation",37.3
"O=C(O)CCC(=O)O [succinic acid (1%), succinic acid]","Relative injury ratings, Day #2","[9]; Day 2 after treatment, 40 G/acre, 8 pots, rating 1-5 per pot, […] Emsorb 6900, […] mineral oil",0
same,"Relative injury ratings, Day #4",[9]; Day 4 after treatment,0
same,"Relative injury ratings, Day #5",[9]; Day 5 after treatment,0
same,Average rating per pot,[9]; scale 1-5,0
same,Foliage Affected (%),soybeans,0%
same,Overall Effect,soybeans; 5 equals profound desiccation,0
"O=C([O-])c1ccccc1O.[Na+] [1.5% sodium salicylate, sodium salicylate]","Injury rating, Spray to drip","[10]; rating 1-5 per pot, three evaluations, 30% acetone, 0.3% Sylgard 309",56.2
same,"Injury rating, Average rating per pot","[10]; scale 1-5, spray to drip",3.51
CCCCCCCCC(=O)O [2.5% pelargonic],"Injury ratings based on 2 independent evaluations, 40 G/a","plants [11]; 40 G/a: lambsquarter, velvetleaf and green foxtail, each pot rated 1 to 5",79.2
same,"Injury ratings based on 2 independent evaluations, 60 G/a","plants [11]; 60 G/a: pigweed, chickweed, crabgrass, green foxtail, velvetleaf, lambsquarter and wheat, each pot rated 1 to 5",102.2
same,"Injury ratings based on 2 independent evaluations, Spray to drip","plants [11]; Spray to drip: nutsedge, velvetleaf, green foxtail, giant foxtail and barnyard grass, each pot rated 1 to 5",53.8
same,Average rating per pot,plants [11]; [13],4.36
